Test results from article PMC7215574, “Development of Thiazolidinones as Fungal Carbonic Anhydrase Inhibitors” (International Journal of Molecular Sciences, 2020).
In brackets after ≈: the same amount, converted by molar mass. Like-named read-outs stand apart in the source and are kept apart here.

Tests used:
[1] = tested on: T1, C. tropicalis 3 strains; assay: microbe, parasite or virus in culture; design: species or system clinical Candida isolates; CLSI broth microdilution MIC, Sabouraud dextrose broth, 35 °C, visual complete growth inhibition; conditions: Candida tropicalis, 24 h, read-out: Tested Fungi (MIC Values μg/mL) / C. tropicalis 3 strains
T1 construct: 3 clinical isolates
Method: (§1) The in vitro antifungal activities were determined by the broth microdilution method with sabouraud dextrose broth (BBL Microbiology Systems, Cockeysville, MD, USA), as recommended by the by the CLSI [43]. Ninety-six-well polystyrene microtitre plates containing serial dilutions of each compound were inoculated with each microorganism to yield the appropriate density (1–5 × 10^3 cells/mL) in a 100-μL final volume. Each plate included (i) fungi without the addition of the compound, (ii) just the medium, and (iii) just the compound. Topical and systemic antifungal reference drugs, clotrimazole and fluconazole, were inserted in the experiment. The plates were incubated for 24 h at 35 °C. […] Three independent experiments were performed in triplicate. The antimicrobial activity of these thiazolidinones was evaluated versus 24 clinical Gram-positive (S. aureus and S. epidermidis) and Gram-negative (E. coli and Enterobacter spp.) microorganisms. The antifungal activity of these derivatives was then tested versus 16 clinical fungal isolates belonging to the most relevant Candida spp. (C. albicans, C. tropicalis, C. parapsilosis, C. sakè, and C. glabrata). Prior to testing, each isolate was cultured on a selective medium to ensure purity and optimal growth, as previously reported. The isolates were routinely identified by the morphological aspects of colonies and by biochemical identification. The used clinical isolates were collected from specimens of patients at the ‘Azienda Policlinico Umberto I’ (Sapienza University of Rome) and were obtained from hematology/oncology and surgery departments, which also included an intensive care unit. In particular, the samples were isolated from the upper and lower respiratory tract, blood, and indwelling venous catheters; the isolates were identified by conventional methodologies. Participating subjects gave their written informed consent for this study.

[2] = tested on: T2, C. parapsilosis 2 strains; assay: microbe, parasite or virus in culture; design: species or system clinical Candida isolates; CLSI broth microdilution MIC, Sabouraud dextrose broth, 35 °C, visual complete growth inhibition; conditions: Lodderomyces parapsilosis, 24 h, read-out: Tested Fungi (MIC Values μg/mL) / C. parapsilosis 2 strains
T2 construct: 2 clinical isolates
Method: as §1

[3] = tested on: T3, Candida sake C. sakè 3 strains; assay: microbe, parasite or virus in culture; design: species or system clinical Candida isolates; broth microdilution antifungal MIC, visual growth inhibition, CLSI; conditions: Fermentozyma sake, 24 h; read-out: Tested Fungi (MIC Values μg/mL) / C. sakè 3 strains
T3 construct: 3 clinical isolates
Method: as §1

[4] = tested on: T4, C. glabrata 3 strains; assay: microbe, parasite or virus in culture; design: species or system clinical Candida isolates; broth microdilution antifungal MIC, visual growth inhibition, CLSI; conditions: Nakaseomyces glabratus, 24 h, read-out: Tested Fungi (MIC Values μg/mL) / C. glabrata 3 strains
T4 construct: 3 clinical isolates
Method: as §1

[5] = tested on: T5, C. albicans 5 strains; assay: microbe, parasite or virus in culture; design: species or system clinical Candida isolates; broth microdilution antifungal MIC, visual growth inhibition, CLSI; conditions: Candida albicans, 24 h, read-out: Tested Fungi (MIC Values μg/mL) / C. albicans 5 strains
T5 construct: 5 clinical isolates
Method: as §1

[6] = target: T6, CgNce103 (Nakaseomyces glabratus, UniProt Q6FTL6); assay: stopped-flow CO2 hydrase assay; format: biochemical
T6 construct: gene NCE103; recombinant, obtained in-house as previously reported; beta-class zinc enzyme
T6 sequence (Q6FTL6 1-219): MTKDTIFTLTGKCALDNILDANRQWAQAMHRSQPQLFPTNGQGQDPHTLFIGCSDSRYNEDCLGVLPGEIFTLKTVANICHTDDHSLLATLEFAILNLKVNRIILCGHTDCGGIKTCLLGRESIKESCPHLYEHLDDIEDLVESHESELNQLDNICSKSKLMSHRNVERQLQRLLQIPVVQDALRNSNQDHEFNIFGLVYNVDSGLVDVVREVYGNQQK

[7] = target: T7, hCA I (Homo sapiens, UniProt P00915); assay: stopped-flow CO2 hydrase assay; format: biochemical
T7 construct: gene CA1; recombinant, obtained in-house as previously reported
T7 sequence (P00915 2-261): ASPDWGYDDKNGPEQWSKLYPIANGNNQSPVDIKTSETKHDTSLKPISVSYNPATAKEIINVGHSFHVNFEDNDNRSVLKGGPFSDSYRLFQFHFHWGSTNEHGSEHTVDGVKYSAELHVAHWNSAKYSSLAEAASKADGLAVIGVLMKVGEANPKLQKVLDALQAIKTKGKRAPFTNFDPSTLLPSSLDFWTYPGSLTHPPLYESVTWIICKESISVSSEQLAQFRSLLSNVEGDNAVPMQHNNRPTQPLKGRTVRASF
Excerpt: stopped-flow CO2 hydrase assay on hCA I

[8] = target: T8, hCA II (Homo sapiens, UniProt P00918); assay: stopped-flow CO2 hydrase assay; format: biochemical
T8 construct: gene CA2; recombinant, obtained in-house as previously reported
Excerpt: stopped-flow CO2 hydrase assay on hCA II

[9] = tested on: T1, C. tropicalis 3 strains; assay: microbe, parasite or virus in culture; design: species or system clinical Candida isolates; broth microdilution antifungal MIC, visual growth inhibition, CLSI; conditions: Candida tropicalis, 24 h, read-out: Tested Fungi (MIC Values μg/mL) / C. tropicalis 3 strains
Method: as §1

[10] = stopped-flow CO2 hydrase assay; format: biochemical, Homo sapiens; conditions: read-out: hCA I

| Structure (SMILES) | MIC [1] | MIC [2] | MIC [3] | MIC [4] | MIC [5] | Ki [6] | Ki [7] | Ki [8] | MIC [9] | Ki [10] |
| --- | --- | --- | --- | --- | --- | --- | --- | --- | --- | --- |
| O=C(N/N=C1\SCC(=O)N1c1ccc([N+](=O)[O-])cc1)C(O)c1ccccc1 (centres unmarked) [3n] | 32 µg/mL (≈ 82.8 µM) | 32 µg/mL (≈ 82.8 µM) | 8 to 32 µg/mL (≈ 20.7 to 82.8 µM) | 8 to 32 µg/mL (≈ 20.7 to 82.8 µM) | 8 to 32 µg/mL (≈ 20.7 to 82.8 µM) |  |  |  |  |  |
| O=C(N/N=C1\SCC(=O)N1c1cccc(C(F)(F)F)c1)C(O)c1ccccc1 (centres unmarked) [3o] | 32 µg/mL (≈ 78.2 µM) | 32 µg/mL (≈ 78.2 µM) | 4 to 8 µg/mL (≈ 9.77 to 19.5 µM) | 4 to 8 µg/mL (≈ 9.77 to 19.5 µM) | 16 to 32 µg/mL (≈ 39.1 to 78.2 µM) | 120 nM | > 100 µM | 82.8 µM |  |  |
| CC1S/C(=N\NC(=O)C(O)c2ccccc2)N(c2cccc(F)c2)C1=O (centres unmarked) [4a] |  | 8 µg/mL (≈ 21.4 µM) | 4 to 8 µg/mL (≈ 10.7 to 21.4 µM) | 8 to 32 µg/mL (≈ 21.4 to 85.7 µM) | 16 to 32 µg/mL (≈ 42.8 to 85.7 µM) | 110 nM | > 100 µM |  | 8 to 32 µg/mL (≈ 21.4 to 85.7 µM) | > 100 µM |
| CC1S/C(=N\NC(=O)C(O)c2ccccc2)N(c2ccc(F)cc2)C1=O (centres unmarked) [4b] |  | 8 µg/mL (≈ 21.4 µM) | 4 to 8 µg/mL (≈ 10.7 to 21.4 µM) | 8 to 32 µg/mL (≈ 21.4 to 85.7 µM) | 16 to 32 µg/mL (≈ 42.8 to 85.7 µM) | 480 nM | > 100 µM |  | 8 to 32 µg/mL (≈ 21.4 to 85.7 µM) | > 100 µM |
| CC1S/C(=N\NC(=O)C(O)c2ccccc2)N(c2cccc(Cl)c2)C1=O (centres unmarked) [4c] |  | 8 µg/mL (≈ 20.5 µM) | 4 to 8 µg/mL (≈ 10.3 to 20.5 µM) | 8 to 32 µg/mL (≈ 20.5 to 82.1 µM) | 16 to 32 µg/mL (≈ 41 to 82.1 µM) | 120 nM | > 100 µM |  | 8 to 32 µg/mL (≈ 20.5 to 82.1 µM) | > 100 µM |
| CC1S/C(=N\NC(=O)C(O)c2ccccc2)N(c2ccc(Cl)cc2)C1=O (centres unmarked) [4d] |  | 8 µg/mL (≈ 20.5 µM) | 4 to 8 µg/mL (≈ 10.3 to 20.5 µM) | 8 to 32 µg/mL (≈ 20.5 to 82.1 µM) | 4 to 16 µg/mL (≈ 10.3 to 41 µM) |  |  |  | 8 to 32 µg/mL (≈ 20.5 to 82.1 µM) |  |
| CC1S/C(=N\NC(=O)C(O)c2ccccc2)N(c2cccc(Br)c2)C1=O (centres unmarked) [4e] |  | 32 µg/mL (≈ 73.7 µM) | 4 to 8 µg/mL (≈ 9.21 to 18.4 µM) | 4 to 8 µg/mL (≈ 9.21 to 18.4 µM) | 4 to 16 µg/mL (≈ 9.21 to 36.8 µM) | 560 nM | > 100 µM | 68.2 µM | 4 to 8 µg/mL (≈ 9.21 to 18.4 µM) |  |
| CC1S/C(=N\NC(=O)C(O)c2ccccc2)N(c2ccc(Br)cc2)C1=O (centres unmarked) [4f] |  | 32 µg/mL (≈ 73.7 µM) | 4 to 8 µg/mL (≈ 9.21 to 18.4 µM) | 4 to 8 µg/mL (≈ 9.21 to 18.4 µM) | 4 to 16 µg/mL (≈ 9.21 to 36.8 µM) | 110 nM | > 100 µM |  | 4 to 8 µg/mL (≈ 9.21 to 18.4 µM) | > 100 µM |
| Cc1cccc(N2C(=O)C(C)S/C2=N\NC(=O)C(O)c2ccccc2)c1 (centres unmarked) [4g] |  | 32 µg/mL (≈ 86.6 µM) | 4 to 8 µg/mL (≈ 10.8 to 21.7 µM) | 4 to 8 µg/mL (≈ 10.8 to 21.7 µM) | 4 to 16 µg/mL (≈ 10.8 to 43.3 µM) | 500 nM | > 100 µM |  | 4 to 8 µg/mL (≈ 10.8 to 21.7 µM) | > 100 µM |
| Cc1ccc(N2C(=O)C(C)S/C2=N\NC(=O)C(O)c2ccccc2)cc1 (centres unmarked) [4h] | 16 µg/mL (≈ 43.3 µM) | 32 µg/mL (≈ 86.6 µM) | 8 to 32 µg/mL (≈ 21.7 to 86.6 µM) | 8 to 32 µg/mL (≈ 21.7 to 86.6 µM) | 8 to 32 µg/mL (≈ 21.7 to 86.6 µM) | 90 nM | > 100 µM |  |  | > 100 µM |
| COc1ccc(N2C(=O)C(C)S/C2=N\NC(=O)C(O)c2ccccc2)cc1 (centres unmarked) [4i] | 16 µg/mL (≈ 41.5 µM) | 32 µg/mL (≈ 83 µM) | 8 to 32 µg/mL (≈ 20.8 to 83 µM) | 8 to 32 µg/mL (≈ 20.8 to 83 µM) | 8 to 32 µg/mL (≈ 20.8 to 83 µM) | 690 nM | > 100 µM |  |  | > 100 µM |
| CC1S/C(=N\NC(=O)C(O)c2ccccc2)N(c2ccc([N+](=O)[O-])cc2)C1=O (centres unmarked) [4j] | 16 µg/mL (≈ 40 µM) | 32 µg/mL (≈ 79.9 µM) | 8 to 32 µg/mL (≈ 20 to 79.9 µM) | 8 to 32 µg/mL (≈ 20 to 79.9 µM) | 8 to 32 µg/mL (≈ 20 to 79.9 µM) |  |  |  |  |  |
| CC1S/C(=N\NC(=O)C(O)c2ccccc2)N(c2cccc(C(F)(F)F)c2)C1=O (centres unmarked) [4k] | 128 µg/mL (≈ 302 µM) | 64 µg/mL (≈ 151 µM) | 8 to 32 µg/mL (≈ 18.9 to 75.6 µM) | 8 to 32 µg/mL (≈ 18.9 to 75.6 µM) | 32 to 128 µg/mL (≈ 75.6 to 302 µM) | 110 nM | > 100 µM |  |  | > 100 µM |
